Data from article PMC12136037, “Type II kinase inhibitors that target Parkinson’s disease–associated LRRK2” (Science Advances, 2025).
Where “and” joins values, the source holds several entries; their conditions need not be identical. Equal values may be shown once.

Target: T1, LRRK2^RCKW (Homo sapiens, UniProt Q5S007)
T1 construct: LRRK2 R1327 to E2527; His6-Z-tag (TEV cleavable) (N, cleaved yes); host or cells: Sf9 insect cells (baculovirus)
T1 sequence (Q5S007 1327-2527): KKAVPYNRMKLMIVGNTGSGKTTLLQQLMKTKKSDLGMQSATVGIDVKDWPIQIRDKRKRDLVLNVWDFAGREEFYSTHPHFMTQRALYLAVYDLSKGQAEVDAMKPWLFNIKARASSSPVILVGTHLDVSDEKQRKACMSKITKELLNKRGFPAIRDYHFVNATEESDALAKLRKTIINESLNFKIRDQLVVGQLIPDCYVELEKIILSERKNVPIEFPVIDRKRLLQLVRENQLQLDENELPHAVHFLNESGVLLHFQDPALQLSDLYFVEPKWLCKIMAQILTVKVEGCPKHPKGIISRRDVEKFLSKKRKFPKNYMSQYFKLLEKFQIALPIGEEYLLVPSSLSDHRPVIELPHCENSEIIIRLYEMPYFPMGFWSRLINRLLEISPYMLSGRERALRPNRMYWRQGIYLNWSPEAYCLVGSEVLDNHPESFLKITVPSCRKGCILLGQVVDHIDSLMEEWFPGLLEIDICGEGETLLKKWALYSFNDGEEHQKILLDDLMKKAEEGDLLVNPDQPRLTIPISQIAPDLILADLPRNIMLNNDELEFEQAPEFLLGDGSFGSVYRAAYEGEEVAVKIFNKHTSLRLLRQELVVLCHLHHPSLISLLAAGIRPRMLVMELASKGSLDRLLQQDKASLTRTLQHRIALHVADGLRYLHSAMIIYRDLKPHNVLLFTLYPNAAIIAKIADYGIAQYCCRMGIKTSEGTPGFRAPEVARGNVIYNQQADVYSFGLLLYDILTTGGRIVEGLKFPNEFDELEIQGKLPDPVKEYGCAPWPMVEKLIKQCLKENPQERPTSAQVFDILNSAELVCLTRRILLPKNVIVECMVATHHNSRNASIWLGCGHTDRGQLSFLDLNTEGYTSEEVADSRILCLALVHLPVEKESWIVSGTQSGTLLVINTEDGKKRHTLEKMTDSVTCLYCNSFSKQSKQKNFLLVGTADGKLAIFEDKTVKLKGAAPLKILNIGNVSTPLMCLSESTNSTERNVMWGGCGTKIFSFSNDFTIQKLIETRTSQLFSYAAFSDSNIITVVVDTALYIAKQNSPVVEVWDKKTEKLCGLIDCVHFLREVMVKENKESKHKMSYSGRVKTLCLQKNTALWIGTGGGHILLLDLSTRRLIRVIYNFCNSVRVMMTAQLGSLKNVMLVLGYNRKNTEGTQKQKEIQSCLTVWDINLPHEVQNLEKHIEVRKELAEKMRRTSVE
Test: Single-molecule in vitro kinesin motility assay (TIRF) in the presence of LRRK2^RCKW
Assay type: biochemical
Settings: for Raw data per microtubule (Figure 6c/6e, kinesin motility): individual microtubule values; for Mean each experiment (Figure 6c/6e raw data, kinesin motility): mean of each independent experiment; for rescue of kinesin motility in the presence of LRRK2^RCKW: MLi-2 5 μM, Ponatinib, RN277, RN341 10 μM
Method: The excitation and emission paths were filtered using appropriate single band-pass filter cubes (Chroma). […] Illumination and image acquisition was controlled by NIS Elements Advanced Research software (Nikon; www.microscope.healthcare.nikon.com/products/software/nis-elements/nis-elements-advanced-research, RRID:SCR_014329).
Single-molecule total internal reflection fluorescence (TIRF) motility experiments were performed in flow chambers using the microscopy setup described above. Flow chambers were made by adhering 1^1/2 thickness cover glass (Corning) to a SuperFrost Plus microscope slide (Electron Microscopy Sciences) with double sided tape. Before flow chamber assembly, cover glass was washed in 1 M HCl at 60°C for 1 hour and sonicated in 100% ethanol for 10 min to reduce nonspecific binding. […] In brief, flow chambers were functionalized by incubation with biotin-BSA (1 mg/ml; Sigma-Aldrich) for 3 min, followed by streptavidin (0.5 mg/ml) for a further 3 min. Taxol-stabilized microtubules were diluted 1:100 in motility assay buffer [30 mM Hepes (pH 7.4), 50 mM potassium acetate, 2 mM magnesium acetate, 1 mM EGTA, 10% glycerol, 1 mM DTT, and 20 μM Taxol] and incubated with the flow chamber for 3 min. Following incubation, the flow chambers with adhered microtubules were washed three times with LRRK2 buffer [20 mM Hepes (pH 7.4), 80 mM NaCl, 0.5 mM TCEP, 5% glycerol, 2.5 mM MgCl2, and 20 μM GDP] before incubation for 5 min with either LRRK2 buffer with DMSO or specified kinase inhibitors (0 nM LRRK2^RCKW) or LRRK2 buffer containing LRRK2^RCKW and DMSO or kinase inhibitors as indicated. In all cases, DMSO or the indicated kinase inhibitors were incubated with LRRK2 buffer in the presence or absence of LRRK2^RCKW for 10 min before addition and incubation within the flow chambers.
Data were blinded before analysis. Kymographs were generated from motility movies and quantified for percent motility using ImageJ V.2.14.0 as previously described ([22], [63]). Processive, diffusive, and nonmotile events were manually annotated for calculation of the percentage of processive events per microtubule. […] Single-molecule movements with multiple behaviors were counted as multiple events. For percentage motility per microtubule measurements, processive events were divided by total events (nonmotile, diffuse, and processive) per kymograph.
For statistical analysis, brightness and contrast were adjusted in ImageJ for all motility movies and kymographs. Statistical analyses were performed in GraphPad Prism 10 (www.graphpad.com/, RRID:SCR_002798). Specific statistical analysis descriptors, n values, and P values can be found in the corresponding figure legends. All TIRF experiments were analyzed from three independent technical replicates.

Row | Structure (SMILES) | Raw data per microtubule (Figure 6c/6e, kinesin motility) (0nM RCKW, listed as RN277) | Mean each experiment (Figure 6c/6e raw data, kinesin motility) (0nM RCKW, listed as RN277) | Raw data per microtubule (Figure 6c/6e, kinesin motility) (100nM RCKW, listed as RN277) | Mean each experiment (Figure 6c/6e raw data, kinesin motility) (100nM RCKW, listed as RN277) | rescue of kinesin motility in the presence of LRRK2^RCKW | Raw data per microtubule (Figure 6c/6e, kinesin motility) (0nM RCKW, listed as RN341) | Mean each experiment (Figure 6c/6e raw data, kinesin motility) (0nM RCKW, listed as RN341) | Raw data per microtubule (Figure 6c/6e, kinesin motility) (100nM RCKW, listed as RN341) | Mean each experiment (Figure 6c/6e raw data, kinesin motility) (100nM RCKW, listed as RN341) | Raw data per microtubule (Figure 6c/6e, kinesin motility) (0nM RCKW) | Mean each experiment (Figure 6c/6e raw data, kinesin motility) (0nM RCKW) | Raw data per microtubule (Figure 6c/6e, kinesin motility) (100nM RCKW) | Mean each experiment (Figure 6c/6e raw data, kinesin motility) (100nM RCKW)
1 | Cc1ccc(-n2nc(C(C)(C)C)cc2NC(=O)Nc2cccc(-c3c[nH]c4nc(Cl)nc(N5CCOCC5)c34)c2)cc1 [Compound 30] | 85.8824 and 78.125 and 82.8829 and 82.3529 and 90 and 85.1064 | 80.5039 and 86.1765 and 85.4944 | 94.0299 and 83.3333 and 78.0142 and 83.1325 and 78.4314 and 95.5556 | 80.6738 and 80.7819 and 94.7927 | rescued kinesin motility |  |  |  |  |  |  |  | 
2 | CCSc1nc(NC)c2c(-c3cccc(NC(=O)Nc4cc(C(C)(C)C)nn4-c4ccc(C)cc4)c3)c[nH]c2n1 [Compound 32] |  |  |  |  | rescued kinesin motility | 77.4648 and 83.4483 and 76.4045 and 86.4865 and 75.9259 and 86.2385 | 79.9264 and 81.2062 and 81.8517 | 76.0563 and 76.9912 and 82.5688 and 91.0891 and 75.8621 and 85.9155 | 79.78 and 83.4756 and 80.9859 |  |  |  | 
3 | Cc1ccc(C(=O)Nc2ccc(CN3CCN(C)CC3)c(C(F)(F)F)c2)cc1C#Cc1cnc2cccnn12 [Ponatinib, reference compound] |  |  |  |  | rescued kinesin motility |  |  |  |  | 83.3333 and 79.7203 and 85.1562 and 84.9462 and 85.9649 and 81.3725 | 82.4383 and 85.4556 and 82.3529 | 85.8491 and 82.7225 and 82.5758 and 84.8485 and 75 and 80.5556 | 82.6491 and 79.9242 and 83.2023
